Laboratory results published in US20240139211A1, “METHODS AND COMPOSITIONS FOR TREATING AMYOTROPHIC LATERAL SCLEROSIS” (Amylyx Pharmaceuticals, Inc., priority 2022, published 2024).
Read-outs that look alike come from different tables or passages of the source.

Experiments:
BSEP = BSEP (Homo sapiens, UniProt O95342); assay: Inhibitor of BSEP; details: for Inhibition of BSEP / Inhibitor of BSEP: two concentrations per test article
MATE1 [1] = target: T1, MATE1 (Homo sapiens, UniProt Q96FL8); assay: Inhibitor of MATE1, probe substrate uptake; details: for potency estimated from few doses: read-out: Estimated IC50, MATE1; for Inhibition of MATE1 / Inhibitor of MATE1: two concentrations per test article
T1 sequence (Q96FL8 1-570): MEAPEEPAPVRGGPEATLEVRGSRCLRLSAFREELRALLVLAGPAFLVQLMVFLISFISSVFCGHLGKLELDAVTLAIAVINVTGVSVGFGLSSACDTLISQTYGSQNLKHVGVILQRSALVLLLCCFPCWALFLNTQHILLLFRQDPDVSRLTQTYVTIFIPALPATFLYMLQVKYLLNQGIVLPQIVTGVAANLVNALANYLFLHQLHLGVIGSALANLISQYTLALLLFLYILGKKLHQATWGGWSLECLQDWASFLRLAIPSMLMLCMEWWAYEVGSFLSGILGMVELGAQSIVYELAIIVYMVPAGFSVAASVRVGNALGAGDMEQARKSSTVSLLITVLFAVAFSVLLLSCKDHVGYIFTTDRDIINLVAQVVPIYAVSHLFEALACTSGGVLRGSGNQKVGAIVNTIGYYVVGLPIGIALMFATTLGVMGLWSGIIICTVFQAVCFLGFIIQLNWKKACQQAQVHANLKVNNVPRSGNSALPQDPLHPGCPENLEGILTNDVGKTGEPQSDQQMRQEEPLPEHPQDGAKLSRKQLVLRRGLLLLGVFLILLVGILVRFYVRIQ

P-gp [2] = target: T2, P-gp (Homo sapiens, UniProt P08183); assay: Inhibitor of P-gp, 3H-digoxin efflux in Caco-2 cells; details: for potency estimated from few doses: read-out: Estimated IC50, P-gp
P-gp [3] = target: T2, P-gp; assay: Substrate of P-gp (Caco-2 cells, selective inhibitors)
CYP2B6 mRNA = assay: CYP2B6 gene expression induction in hepatocyte cultures; details: for EC50: read-out: EC50, CYP2B6 gene expression
CYP3A4 mRNA = assay: CYP3A4 gene expression induction in hepatocyte cultures; details: for Inducer of CYP3A4 (conclusion): gene expression and enzyme activity, three donors
OAT1 = target: T3, OAT1 (Homo sapiens, UniProt Q4U2R8); assay: Substrate of OAT1, uptake in HEK293 cells
T3 sequence (Q4U2R8 1-563): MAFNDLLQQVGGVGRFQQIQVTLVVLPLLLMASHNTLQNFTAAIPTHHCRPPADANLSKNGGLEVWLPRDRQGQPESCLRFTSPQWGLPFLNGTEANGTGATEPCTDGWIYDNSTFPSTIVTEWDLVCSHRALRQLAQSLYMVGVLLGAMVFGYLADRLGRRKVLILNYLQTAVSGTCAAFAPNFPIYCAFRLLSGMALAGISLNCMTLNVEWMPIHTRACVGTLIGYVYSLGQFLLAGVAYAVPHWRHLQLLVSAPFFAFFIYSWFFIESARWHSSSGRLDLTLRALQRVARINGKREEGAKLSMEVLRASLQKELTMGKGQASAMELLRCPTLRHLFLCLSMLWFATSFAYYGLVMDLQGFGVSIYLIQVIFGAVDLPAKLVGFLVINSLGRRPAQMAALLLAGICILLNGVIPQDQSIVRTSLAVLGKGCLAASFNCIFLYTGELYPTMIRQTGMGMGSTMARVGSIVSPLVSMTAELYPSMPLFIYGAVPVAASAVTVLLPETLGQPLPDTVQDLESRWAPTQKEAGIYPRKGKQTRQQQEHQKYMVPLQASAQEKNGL
Text: (§1) Vector-transfected HEK cells were used as a control.

OCT2 = target: T4, OCT2 (Homo sapiens, UniProt O15244); assay: Substrate of OCT2, uptake in HEK293 cells
T4 sequence (O15244 1-555): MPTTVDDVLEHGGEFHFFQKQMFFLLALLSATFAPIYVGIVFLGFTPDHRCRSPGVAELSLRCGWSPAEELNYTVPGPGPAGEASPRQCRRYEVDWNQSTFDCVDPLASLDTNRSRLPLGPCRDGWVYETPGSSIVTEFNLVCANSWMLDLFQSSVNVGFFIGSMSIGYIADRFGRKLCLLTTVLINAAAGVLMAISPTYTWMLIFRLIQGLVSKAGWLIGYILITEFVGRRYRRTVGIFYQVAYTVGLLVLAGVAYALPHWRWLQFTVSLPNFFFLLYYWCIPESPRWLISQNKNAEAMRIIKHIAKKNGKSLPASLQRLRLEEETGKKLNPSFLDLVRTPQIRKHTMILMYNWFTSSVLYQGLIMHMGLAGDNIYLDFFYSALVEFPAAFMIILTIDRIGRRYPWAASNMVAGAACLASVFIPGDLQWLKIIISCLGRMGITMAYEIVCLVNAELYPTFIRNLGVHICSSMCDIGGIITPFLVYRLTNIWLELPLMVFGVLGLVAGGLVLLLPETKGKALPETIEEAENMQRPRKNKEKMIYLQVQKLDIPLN
Text: as §1

MATE1 [4] = target: T1, MATE1; assay: Substrate of MATE1, uptake in HEK293 cells
Text: as §1

MATE2K = MATE2K (Homo sapiens, UniProt Q86VL8); assay: Substrate of MATE2-K, uptake in HEK293 cells
Text: as §1

[5] = estimated from two concentrations
[6] = Caco-2, two concentrations per test article
[7] = estimated from two concentrations, Caco-2 cells
[8] = two concentrations per test article, Caco-2 cells
[9] = test article 1 and 10 μM, Caco-2 cells
[10] = Caco-2, estimated from two doses

T2 sequence (P08183 whole entry): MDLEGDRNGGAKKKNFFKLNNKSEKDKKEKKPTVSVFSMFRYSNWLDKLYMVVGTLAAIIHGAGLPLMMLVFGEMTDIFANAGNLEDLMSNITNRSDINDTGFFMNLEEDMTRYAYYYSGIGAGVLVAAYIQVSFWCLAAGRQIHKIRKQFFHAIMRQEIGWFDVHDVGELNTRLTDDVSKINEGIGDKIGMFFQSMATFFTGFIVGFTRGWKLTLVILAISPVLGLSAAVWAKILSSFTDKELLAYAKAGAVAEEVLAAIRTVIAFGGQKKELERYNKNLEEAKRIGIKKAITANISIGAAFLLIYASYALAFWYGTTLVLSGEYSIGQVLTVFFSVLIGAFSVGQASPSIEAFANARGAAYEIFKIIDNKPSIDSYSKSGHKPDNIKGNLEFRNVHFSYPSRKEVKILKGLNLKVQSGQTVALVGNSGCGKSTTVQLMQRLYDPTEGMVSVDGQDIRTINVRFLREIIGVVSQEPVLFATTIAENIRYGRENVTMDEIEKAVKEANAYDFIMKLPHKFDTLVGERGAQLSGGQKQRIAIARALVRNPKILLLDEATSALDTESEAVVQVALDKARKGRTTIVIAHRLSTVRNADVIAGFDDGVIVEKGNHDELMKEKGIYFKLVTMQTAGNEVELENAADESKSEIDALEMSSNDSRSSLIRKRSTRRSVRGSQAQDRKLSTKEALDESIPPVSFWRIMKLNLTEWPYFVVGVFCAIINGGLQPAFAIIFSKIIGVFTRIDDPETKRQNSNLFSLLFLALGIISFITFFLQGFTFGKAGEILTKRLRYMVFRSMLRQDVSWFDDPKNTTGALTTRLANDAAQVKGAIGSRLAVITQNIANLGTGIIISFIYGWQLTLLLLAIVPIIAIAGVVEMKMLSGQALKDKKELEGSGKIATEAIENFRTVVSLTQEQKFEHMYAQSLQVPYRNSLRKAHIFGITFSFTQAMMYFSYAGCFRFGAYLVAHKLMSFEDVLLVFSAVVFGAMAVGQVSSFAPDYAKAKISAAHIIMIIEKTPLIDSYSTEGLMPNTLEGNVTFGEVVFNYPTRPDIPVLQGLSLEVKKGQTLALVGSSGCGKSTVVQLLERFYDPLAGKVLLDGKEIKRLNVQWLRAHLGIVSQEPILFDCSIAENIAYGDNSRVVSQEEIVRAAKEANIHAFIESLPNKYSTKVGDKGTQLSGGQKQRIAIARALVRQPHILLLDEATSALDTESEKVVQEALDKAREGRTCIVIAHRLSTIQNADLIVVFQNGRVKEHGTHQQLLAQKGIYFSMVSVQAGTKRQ
BSEP, sequence (O95342 whole entry): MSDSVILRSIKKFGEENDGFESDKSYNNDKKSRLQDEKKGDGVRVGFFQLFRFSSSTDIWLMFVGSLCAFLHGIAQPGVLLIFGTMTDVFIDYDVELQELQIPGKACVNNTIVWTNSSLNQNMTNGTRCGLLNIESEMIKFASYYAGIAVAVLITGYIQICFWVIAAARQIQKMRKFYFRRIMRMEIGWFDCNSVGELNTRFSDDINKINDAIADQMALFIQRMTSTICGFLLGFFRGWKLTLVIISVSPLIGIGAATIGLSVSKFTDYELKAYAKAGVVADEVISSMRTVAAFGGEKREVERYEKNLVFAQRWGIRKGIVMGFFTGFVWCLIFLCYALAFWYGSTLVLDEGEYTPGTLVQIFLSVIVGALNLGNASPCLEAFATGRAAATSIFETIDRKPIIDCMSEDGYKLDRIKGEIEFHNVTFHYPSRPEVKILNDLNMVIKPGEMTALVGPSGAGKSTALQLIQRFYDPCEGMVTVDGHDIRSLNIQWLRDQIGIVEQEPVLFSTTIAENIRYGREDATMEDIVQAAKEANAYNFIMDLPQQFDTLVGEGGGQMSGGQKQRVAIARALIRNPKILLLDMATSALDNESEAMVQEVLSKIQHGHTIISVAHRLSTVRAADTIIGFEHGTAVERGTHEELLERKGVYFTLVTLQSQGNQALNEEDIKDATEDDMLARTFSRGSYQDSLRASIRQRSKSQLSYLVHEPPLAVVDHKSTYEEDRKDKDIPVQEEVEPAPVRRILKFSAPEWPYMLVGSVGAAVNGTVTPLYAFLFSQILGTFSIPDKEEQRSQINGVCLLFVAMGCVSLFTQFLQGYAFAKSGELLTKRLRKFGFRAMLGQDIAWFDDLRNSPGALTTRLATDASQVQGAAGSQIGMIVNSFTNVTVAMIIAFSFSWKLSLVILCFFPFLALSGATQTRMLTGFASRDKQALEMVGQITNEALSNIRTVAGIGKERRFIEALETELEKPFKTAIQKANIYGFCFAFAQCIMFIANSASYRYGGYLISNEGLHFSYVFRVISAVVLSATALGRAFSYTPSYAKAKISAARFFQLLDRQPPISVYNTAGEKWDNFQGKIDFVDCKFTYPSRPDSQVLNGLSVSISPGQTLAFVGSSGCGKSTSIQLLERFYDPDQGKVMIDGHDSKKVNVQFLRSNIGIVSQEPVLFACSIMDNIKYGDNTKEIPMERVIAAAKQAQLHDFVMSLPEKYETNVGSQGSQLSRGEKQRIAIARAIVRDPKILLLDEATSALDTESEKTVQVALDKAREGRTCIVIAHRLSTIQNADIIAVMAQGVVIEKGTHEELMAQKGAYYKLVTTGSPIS
MATE2K, sequence (Q86VL8 1-566 isoform Q86VL8-3): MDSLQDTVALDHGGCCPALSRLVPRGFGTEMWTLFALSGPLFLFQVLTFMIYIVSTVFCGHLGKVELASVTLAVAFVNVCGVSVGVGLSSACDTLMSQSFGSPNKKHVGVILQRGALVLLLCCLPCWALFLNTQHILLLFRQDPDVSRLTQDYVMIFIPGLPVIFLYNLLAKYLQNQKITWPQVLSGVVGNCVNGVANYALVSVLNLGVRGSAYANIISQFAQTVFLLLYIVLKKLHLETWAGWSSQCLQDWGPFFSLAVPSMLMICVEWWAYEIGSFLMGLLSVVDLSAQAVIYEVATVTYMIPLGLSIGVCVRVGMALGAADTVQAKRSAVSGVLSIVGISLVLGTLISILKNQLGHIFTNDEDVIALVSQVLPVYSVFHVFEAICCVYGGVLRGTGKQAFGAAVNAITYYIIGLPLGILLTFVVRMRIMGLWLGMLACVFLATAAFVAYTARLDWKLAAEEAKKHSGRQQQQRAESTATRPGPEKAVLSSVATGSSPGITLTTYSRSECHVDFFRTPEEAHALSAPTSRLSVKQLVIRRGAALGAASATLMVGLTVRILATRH

Molecule	Inhibition of BSEP (BSEP)	Inhibitor of BSEP (BSEP)	potency estimated from few doses (MATE1 [1]; [5])	Inhibition of MATE1 (MATE1 [1])	Inhibitor of MATE1 (MATE1 [1])	Inhibitor of P-gp (P-gp [2]; [6])	potency estimated from few doses (P-gp [2]; [7])	Inhibitor of P-gp (P-gp [2]; [8])	Substrate of P-gp (P-gp [3]; Caco-2, 1 and 10 μM)	Substrate of P-gp (P-gp [3]; [9])	Emax, CYP2B6 gene expression (CYP2B6 mRNA; Donor 1)	Inducer of CYP3A4 (conclusion) (CYP3A4 mRNA)	Substrate of OAT1 (OAT1; 1 and 10 μM)	Substrate of OAT1 (OAT1; test article 1 and 10 μM)	Substrate of OCT2 (OCT2; 1 and 10 μM)	Substrate of OCT2 (OCT2; test article 1 and 10 μM)	Substrate of MATE1 (MATE1 [4]; 1 and 10 μM)	Substrate of MATE1 (MATE1 [4]; test article 1 and 10 μM)	Remaining P-gp activity, % of the control (P-gp [2]; higher test concentration)	Remaining P-gp activity, % of the control (P-gp [2]; lower test concentration)	further results
C[C@H](CCC(=O)NCC(=O)O)[C@H]1CC[C@H]2[C@@H]3[C@@H](O)C[C@@H]4C[C@H](O)CC[C@]4(C)[C@H]3CC[C@]12C [Glycoursodeoxycholic acid, glycoursodeoxycholic acid]	inhibited	Yes	> 100 µM	inhibited	Yes	identified as an inhibitor	< 10 µM	Yes	as a substrate	Yes	5.60 fold	did not meet the classification requirements to be identified as an inducer of CYP3A4	–	–	–	–	–	–	–	–	potency estimated from few doses (BSEP; human): < 10 µM; Efflux remaining with zosuquidar (P-gp [3]; Caco-2): < 55.3%; Efflux remaining with verapamil (P-gp [3]; Caco-2, at 10 μM): 74.7%; Emax, CYP2B6 gene expression (CYP2B6 mRNA; Donor 2): 4.53 fold; Maximum fold induction of CYP2B6 gene expression (CYP2B6 mRNA; Donor 2): 4.80 fold; Emax, CYP2B6 gene expression (CYP2B6 mRNA; Donor 3): 5.78 fold; Maximum fold induction of CYP2B6 gene expression (CYP2B6 mRNA; Donor 3): 5.68 fold; EC50 (CYP2B6 mRNA; Donor 2): 1.39 µM; EC50 (CYP2B6 mRNA; Donor 3): 1.48 µM; Maximum fold induction of CYP3A4 gene expression (CYP3A4 mRNA; Donor 2): 3.40 fold; Maximum fold induction of CYP3A4 gene expression (CYP3A4 mRNA; Donor 3): 3.30 fold
tauroursodeoxycholic acid [TUDCA]	inhibited	Yes	> 50 µM	inhibited	Yes	identified as an inhibitor	> 50 µM	Yes	as a substrate	Yes	–	did not meet the classification requirements to be identified as an inducer	not a substrate	No	not a substrate	No	not a substrate	No	57.3%	78.8%	Substrate of MATE2-K (MATE2K; 1 and 10 μM): not a substrate; Substrate of MATE2-K (MATE2K; test article 1 and 10 μM): No; potency estimated from few doses (BSEP; read-out: Estimated IC50, BSEP, estimated from two concentrations): < 5 µM; potency estimated from few doses (MATE1 [1]; estimated from two doses): > 50 µM; potency estimated from few doses (P-gp [2]; [10]): > 50 µM; Inducer of CYP2B6 (conclusion) (CYP2B6 mRNA; gene expression and enzyme activity, three donors): did not meet the classification requirements to be identified as an inducer
O=C(O)CCCc1ccccc1 [PB, sodium phenylbutyrate]	did not inhibit	No	< 250 µM	inhibited	Yes	not an inhibitor	–	No	not a substrate	No	8.54 fold	–	–	–	–	–	–	–	106%	93.5%	Decrease of MATE2-K uptake by known inhibitor (MATE2K; human, 2 min): > 25%; Uptake in MATE2-K cells (MATE2K; human, 2 min): 27.5 pmol/minute/mg protein; Uptake activity remaining, MATE1 (MATE1 [1]; 250 μM): 43.7%; Emax, CYP2B6 gene expression (CYP2B6 mRNA; Donor 2): 24.4 fold; EC50 (CYP2B6 mRNA; Donor 1): 19.1 µM; EC50 (CYP2B6 mRNA; Donor 2): 108 µM
O=C(O)Cc1ccccc1 [Phenylacetic acid, phenylacetic acid]	inhibited	Yes	–	did not inhibit	No^a	weak inhibitor	> 7500 µM	Yes	not a substrate	No	11.1 fold	do not identify phenylacetic acid as an inducer of CYP3A4	not a substrate	No	not a substrate	No	not a substrate	No^a	75.6%	85.9%	Net MATE2-K uptake remaining with inhibitor (MATE2K; 10 μM): 64.1%; Uptake in MATE2-K cells (MATE2K; 10 μM): 84.2 pmol/min/mg; Substrate of MATE2-K (MATE2K; 1 and 10 μM): identified as a substrate; Substrate of MATE2-K (MATE2K; test article 1 and 10 μM): Yes; potency estimated from few doses (BSEP; human): < 7500 µM
ursodeoxycholic acid	–	–	< 500 µM	inhibited	Yes	identified as an inhibitor	< 500 µM	Yes^a	not a substrate	No	–	–	not a substrate	No	not a substrate	No	not a substrate	No	13.0%	348%	Substrate of MATE2-K (MATE2K; 1 and 10 μM): not a substrate; Substrate of MATE2-K (MATE2K; test article 1 and 10 μM): No; potency estimated from few doses (MATE1 [1]; estimated from two doses): < 500 µM; potency estimated from few doses (P-gp [2]; [10]): < 500 µM
